Assay results: patent US12295396B2, “Antagonists of T2R54 and compositions and uses thereof” (Firmenich Incorporated, priority 2018, dated 2025)
Read-outs that look alike come from different tables or passages of the source.

Biological target: T1, hT2R54 (Homo sapiens, UniProt P59534)
T1 construct: expressed in transfected cells; it overexpresses a promiscuous G protein
T1 sequence (P59534 1-338): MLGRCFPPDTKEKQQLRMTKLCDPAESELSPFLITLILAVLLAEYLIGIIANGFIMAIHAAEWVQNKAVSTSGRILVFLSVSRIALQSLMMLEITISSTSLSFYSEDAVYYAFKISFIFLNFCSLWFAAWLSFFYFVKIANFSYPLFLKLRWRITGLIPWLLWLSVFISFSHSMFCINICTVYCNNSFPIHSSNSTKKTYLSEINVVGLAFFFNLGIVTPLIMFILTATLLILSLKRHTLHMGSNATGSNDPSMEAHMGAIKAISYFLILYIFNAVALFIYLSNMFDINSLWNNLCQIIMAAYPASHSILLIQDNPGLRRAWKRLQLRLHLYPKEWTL
Test: Cell-based assay for measuring hT2R54 inhibition (FLIPR calcium, Fluo4AM, acetaminophen as bitter agonist)
Conditions: cells stably expressing hT2R54 and a promiscuous G protein, read-out: hT2R54 IC50
Outline: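 Cells stably co-expressing hT2R54 and a promiscuous G protein were loaded with Fluo4AM and given acetaminophen dose series, alone or with fixed concentrations of test compound. On FLIPR, baseline was recorded for 10 s and fluorescence for 3 min after addition. IC50 is the concentration halving the acetaminophen-alone response.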

CCOC(=O)C1CCN(CC(=O)Nc2cc3c(cc2C(C)=O)OCCO3)CC1 [compound 153]
IC50 (Table 4): 0.024 µM

CNC(=O)C1CCCN(CC(=O)Nc2cc3c(cc2C(C)=O)OCO3)C1 (centres unmarked) [compound 154, 1-(2-((6-Acetylbenzo[d][1,3]dioxol-5-yl)amino)-2-oxoethyl)-N-methylpiperidine-3-carboxamide]
IC50 (Table 5): 0.024 µM

CCNC(=O)C1CCCN(CC(=O)Nc2cc3c(cc2C(C)=O)OCO3)C1 (centres unmarked) [compound 155]
IC50 (Table 5): 0.21 µM

CC(=O)c1cc2c(cc1NC(=O)CN1CCCC(C(=O)NCc3ccccc3)C1)OCO2 (centres unmarked) [compound 156]
IC50 (Table 5): 0.114 µM

CC(=O)c1cc2c(cc1NC(=O)CN1CCCC(C(=O)Nc3ccccc3)C1)OCO2 (centres unmarked) [compound 157]
IC50 (Table 5): 0.565 µM

CC(=O)c1cc2c(cc1NC(=O)CN1CCCC(C(=O)N(C)C)C1)OCO2 (centres unmarked) [compound 158]
IC50 (Table 5): 0.107 µM

CC(=O)c1cc2c(cc1NC(=O)CN1CCCC(C(=O)N3CCOCC3)C1)OCO2 (centres unmarked) [compound 159]
IC50 (Table 5): 0.497 µM

CNC(=O)C1CCCCN1CC(=O)Nc1cc2c(cc1C(C)=O)OCO2 (centres unmarked) [compound 160]
IC50 (Table 5): 1.27 µM

CNC(=O)C1CCN(CC(=O)Nc2cc3c(cc2C(C)=O)OCO3)CC1 [compound 161]
IC50 (Table 5): 1.35 µM

CCNC(=O)C1CCN(CC(=O)Nc2cc3c(cc2C(C)=O)OCO3)CC1 [compound 162]
IC50 (Table 5): 0.747 µM

CC(=O)c1cc2c(cc1NC(=O)CN1CCC(C(=O)Nc3cccnc3)CC1)OCO2 [compound 163]
IC50 (Table 5): 0.459 µM

CC(=O)c1cc2c(cc1NC(=O)CN1CCC(C(=O)Nc3ccccc3)CC1)OCO2 [compound 164]
IC50 (Table 5): 2.09 µM

CC(=O)c1cc2c(cc1NC(=O)CN1CCC(C(=O)NCc3ccccc3)CC1)OCO2 [compound 165]
IC50 (Table 5): 1.4 µM

CC(=O)NC1CCN(CC(=O)Nc2cc3c(cc2C(C)=O)OCO3)CC1 [compound 166, 2-(4-Acetamidopiperidin-1-yl)-N-(6-acetylbenzo[d][1,3]dioxol-5-yl)acetamide]
IC50 (Table 6): 0.264 µM

CCC(=O)NC1CCN(CC(=O)Nc2cc3c(cc2C(C)=O)OCO3)CC1 [compound 167]
IC50 (Table 6): 0.31 µM

CC(=O)c1cc2c(cc1NC(=O)CN1CCC(NC(=O)C(C)C)CC1)OCO2 [compound 168]
IC50 (Table 6): 0.14 µM

CC(=O)c1cc2c(cc1NC(=O)CN1CCC(NC(=O)CC(C)C)CC1)OCO2 [compound 169]
IC50 (Table 6): 0.14 µM

CC(=O)c1cc2c(cc1NC(=O)CN1CCC(CNC(=O)CC(C)C)CC1)OCO2 [compound 170]
IC50 (Table 6): 0.188 µM

CC(=O)c1cc2c(cc1NC(=O)CN1CCC(NC(=O)c3ccccc3)CC1)OCO2 [compound 171]
IC50 (Table 6): 0.06 µM

CC(=O)c1cc2c(cc1NC(=O)CN1CCC(NC(=O)c3ccco3)CC1)OCO2 [compound 172]
IC50 (Table 6): 0.69 µM

CC(=O)c1cc2c(cc1NC(=O)CN1CCC(NC(=O)c3cccs3)CC1)OCO2 [compound 173]
IC50 (Table 6): 0.11 µM

CC(=O)c1cc2c(cc1NC(=O)CN1CCC(NC(=O)c3ccccn3)CC1)OCO2 [compound 174]
IC50 (Table 6): 0.27 µM

CC(=O)c1cc2c(cc1NC(=O)CN1CCC(NC(=O)c3cccnc3)CC1)OCO2 [compound 175]
IC50 (Table 6): 0.11 µM

CC(=O)c1cc2c(cc1NC(=O)CN1CCC(NC(=O)c3ccncc3)CC1)OCO2 [compound 176]
IC50 (Table 6): 0.45 µM

CC(=O)c1cc2c(cc1NC(=O)CNC1CCN(C(=O)CC(C)C)CC1)OCO2 [compound 177]
IC50 (Table 6): 0.2 µM

CC(=O)c1cc2c(cc1NC(=O)CNC1CCN(C(=O)c3ccco3)CC1)OCO2 [compound 178]
IC50 (Table 6): 0.06 µM

CC(=O)c1cc2c(cc1NC(=O)CNC1CCN(C(=O)c3cccnc3)CC1)OCO2 [compound 179]
IC50 (Table 6): 0.09 µM

CC(=O)c1cc2c(cc1NC(=O)CN1CCC(N(C)C(=O)CC(C)C)CC1)OCO2 [compound 180]
IC50 (Table 6): 0.589 µM

CC(=O)c1cc2c(cc1NC(=O)CN1CCC(N(C)C(=O)c3ccco3)CC1)OCO2 [compound 181]
IC50 (Table 6): 0.676 µM
